A value given as a limit tells only on which side of the number the result lay.

The term IC50 denotes the midpoint of a concentration-inhibition curve.

One series concerns the target T1, wtKIT (Homo sapiens, UniProt P10721).
T1 construct: 1888289AM in the reaction mixtures
As to the kind of experiment: HTRF biochemical assay, wtKIT (phosphorylation of a peptide substrate). To be noted: Table 4. In outline:
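wtKIT (5.0 nM) phosphorylating 1 µM FAM-labelled peptide with 400 µM ATP and 10 mM MnCl2 in 100 mM HEPES pH 7.5, 1% DMSO, 3 h at 25 °C. EDTA quench; phosphopeptide detected with anti-phosphotyrosine antibody by HTRF. Enzyme titrated for 10-20% substrate conversion.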
(In general: Time-resolved FRET reads energy transfer from a long-lived donor to a nearby acceptor.)

The target of a further series is T2, CSF-1R (Homo sapiens, UniProt P07333).
T2 construct: purchased Invitrogen PV3249 (lot 662393N)
As to the kind of experiment: HTRF biochemical assay, CSF-1R. To be noted: Table 4. The procedure:
(§1) Exemplary compounds were tested for ability to inhibit the phosphorylation of a peptide substrate by the tyrosine kinase wt KIT, PDGFRα, or CSF-1R. Assay procedures and results are described below.
(§2) Enzyme, substrate, and cofactors (ATP and Mn^2+) are combined in a well of a microtiter plate and incubated for 3 hours at 25° C. At the end of the incubation, the reaction is quenched by the addition of an EDTA-containing buffer.
(§3) The substrate used in the CSF-1R and PDGFRα assay is FAM-[…]-CONH2 (FAM is carboxyfluorescein). Peptide should be >95% purity. The substrate for the KIT assay is FAM-[…]-NH2.
(§4) • 1. To a well of a 384-wellplate add 5 μL of 2× enzyme buffer (or control). • 2. Add 100 nL of 100× compound. Enzyme and compound may be pre-incubated at this time if desired. • 3. Add 5 μL of 2× substrate buffer. • 4. Incubate plate at 25° C. for 3 hours. • 5. Add 10 uL of anti-phosphotyrosine antibody buffer. • 6. Read plate in BioTek Synergy Reader. Reaction Conditions for wtKIT Assay

In another series the target is T3, PDGFRα (Homo sapiens, UniProt P16234).
T3 construct: purchased Millipore 14-467 (lot 26321_ACTI)
Put plainly: HTRF biochemical assay, PDGFRα. To be noted: Table 4, read-out: PDFGRα Biochemical IC50 avg. The procedure:
as §1, §2, §3, §4

Series [1] deals with KIT phosphorylation in M-07e cells. As to the kind of experiment: Cell-based KIT phosphorylation in M-07e cells by pKIT ELISA. Set-up: species or system human. To be noted: SCF stimulation. In outline: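 Serum-starved M-07e cells (1 × 10^6/mL, overnight) were treated with compounds (8-point 3-fold series from 1 uM) for 2 h at 37 °C, then stimulated with 100 ng/mL SCF for 5 min. Lysate phospho-KIT was captured on anti-phospho-CD117 plates, detected with anti-pY-HRP, and read at 450 nm against a pc-KIT standard curve.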

The next series is described as follows: Kinetic solubility assay. The series is classed as physicochemical. To be noted: kinetic solubility, 50 mM PB (pH 7.4), shaken 24 hours at RT. In outline: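 Test compounds from 10 mM DMSO stock were diluted in 50 mM phosphate buffer, pH 7.4, and shaken for 24 h at RT. After PTFE filtration and centrifugation, filtrate concentration was quantified by UPLC-UV/HPLC-UV against a standard curve.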

For another series, the system named is CYP3A4. As to the kind of experiment: Hepatocyte CYP induction assay, CYP3A4 gene expression. The series is classed as in vitro ADME. The following applies: human hepatocytes, donor four. The procedure:
Exemplary compounds were tested for ability to induce CYP3A4 and/or CYP1A2 in hepatocytes. Procedures and results are described below.
Cryopreserved human hepatocytes were purchased from BioIVT (Baltimore, MD, USA), and they were stored in liquid nitrogen before using. The detailed information of hepatocytes is as follows:
Fresh dosing solutions of test compounds, and Rifampicin were prepared in the incubation medium on the day of dosing.
Cryopreserved hepatocytes were thawed and counted to determine yield, viability was measured. Hepatocytes at the concentrations of 0.7 million/mL were transferred to collagen-coated 96-well plates for attachment (0.1 mL viable cells/well). After allowing 4 to 5 hours for attachment of cells, the plating medium was replaced with Incubation Medium containing 2% (v/v) Matrigel™ (sandwich medium) and the hepatocytes were incubated until use.
All incubations were conducted at 37° C., 5% CO2, and saturated humidity.
The sandwich medium was removed and the hepatocytes were treated with incubation solutions containing test articles in vehicle (0.1% DMSO), or positive control for 24 hours after the cultures were established. The incubation solution was aspirated and replaced with incubation solution containing the same concentrations of test articles, vehicle, or positive controls for an additional 24 hours. The total treatment period was 48 hours. Triplicate were used for each concentration of test compound and positive control.
After treatment period of 48 hours, the incubation solution was aspirated. Hepatocytes were washed once with pre-warmed HBSS and incubated with 140 μL of RLT (lysis buffer from Rneasy 96 Kit) supplemented with 1% β-mercaptoethanol. Plates were then stored at ≤−60° C. freezer until RNA analysis.
Before RNA extraction, the frozen plate was thawed and cell lysates were transferred to 96-well plates. RNA isolation was performed using QIAcube HT System. RNA concentration was measured with NanoDrop ND-2000 spectrophotometer. The purity of RNA preparation was calculated by the ratio of the OD260 nm/OD280 nm and the acceptable range is between 1.8 and 2.2. Reverse transcription was performed to obtain cDNA. Quantification of the selective genes by real time quantitative Polymerase Chain Reaction (qPCR) was performed with TaqMan universal PCR Master Mix on the BIO-RAD CFX 384 Touch Real Time PCR System. The following setting were used: 50° C. for 2 minutes, 95° C. for 10 minutes, 40 cycles of 95° C. for 15 seconds and 60° C. for 1 minute. 18S rRNA was used as the internal standard.
To account for variation in RNA yields and reverse transcription polymerase chain reaction (RT-PCR), the gene of interest in all samples was normalized to an internal control gene (18S ribosomal RNA) (Cttarget gene−Ct18S=ΔCt).
The relative quantitation or change in mRNA level of selected genes induced by each test compound was expressed in relation to the vehicle control sample (Δctcompound−ΔCtvehicle=ΔΔCt). Fold changes in gene expression were determined by taking 2 to the power of this value (2^−ΔΔt).
% of positive control [(fold change in treated sample)−1]/[(fold change in positive control)−1]×100

T1 sequence (P10721 26-976): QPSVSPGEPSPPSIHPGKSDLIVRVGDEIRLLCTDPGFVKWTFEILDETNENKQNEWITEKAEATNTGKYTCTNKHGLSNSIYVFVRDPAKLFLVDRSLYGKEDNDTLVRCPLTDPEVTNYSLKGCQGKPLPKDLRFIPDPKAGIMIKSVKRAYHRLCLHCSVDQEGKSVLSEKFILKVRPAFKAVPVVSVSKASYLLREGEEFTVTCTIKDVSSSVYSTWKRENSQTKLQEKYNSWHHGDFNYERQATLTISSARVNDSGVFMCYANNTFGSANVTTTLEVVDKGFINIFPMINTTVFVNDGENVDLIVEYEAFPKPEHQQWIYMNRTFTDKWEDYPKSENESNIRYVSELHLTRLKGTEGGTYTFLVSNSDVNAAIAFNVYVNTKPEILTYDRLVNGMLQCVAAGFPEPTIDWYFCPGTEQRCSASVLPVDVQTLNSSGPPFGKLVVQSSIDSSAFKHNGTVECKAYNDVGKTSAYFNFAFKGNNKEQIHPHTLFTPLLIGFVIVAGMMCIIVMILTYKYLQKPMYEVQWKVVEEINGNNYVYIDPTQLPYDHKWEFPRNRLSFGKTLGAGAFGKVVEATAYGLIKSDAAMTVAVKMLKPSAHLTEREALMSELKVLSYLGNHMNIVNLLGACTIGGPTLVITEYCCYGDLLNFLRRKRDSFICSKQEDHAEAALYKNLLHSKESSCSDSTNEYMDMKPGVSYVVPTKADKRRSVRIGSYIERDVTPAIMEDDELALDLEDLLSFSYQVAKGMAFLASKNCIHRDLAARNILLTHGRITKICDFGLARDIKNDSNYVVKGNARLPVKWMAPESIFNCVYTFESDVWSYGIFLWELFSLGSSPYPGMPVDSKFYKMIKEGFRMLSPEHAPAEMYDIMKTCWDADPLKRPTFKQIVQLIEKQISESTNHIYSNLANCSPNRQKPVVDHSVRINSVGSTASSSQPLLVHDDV
T2 sequence (P07333 20-972): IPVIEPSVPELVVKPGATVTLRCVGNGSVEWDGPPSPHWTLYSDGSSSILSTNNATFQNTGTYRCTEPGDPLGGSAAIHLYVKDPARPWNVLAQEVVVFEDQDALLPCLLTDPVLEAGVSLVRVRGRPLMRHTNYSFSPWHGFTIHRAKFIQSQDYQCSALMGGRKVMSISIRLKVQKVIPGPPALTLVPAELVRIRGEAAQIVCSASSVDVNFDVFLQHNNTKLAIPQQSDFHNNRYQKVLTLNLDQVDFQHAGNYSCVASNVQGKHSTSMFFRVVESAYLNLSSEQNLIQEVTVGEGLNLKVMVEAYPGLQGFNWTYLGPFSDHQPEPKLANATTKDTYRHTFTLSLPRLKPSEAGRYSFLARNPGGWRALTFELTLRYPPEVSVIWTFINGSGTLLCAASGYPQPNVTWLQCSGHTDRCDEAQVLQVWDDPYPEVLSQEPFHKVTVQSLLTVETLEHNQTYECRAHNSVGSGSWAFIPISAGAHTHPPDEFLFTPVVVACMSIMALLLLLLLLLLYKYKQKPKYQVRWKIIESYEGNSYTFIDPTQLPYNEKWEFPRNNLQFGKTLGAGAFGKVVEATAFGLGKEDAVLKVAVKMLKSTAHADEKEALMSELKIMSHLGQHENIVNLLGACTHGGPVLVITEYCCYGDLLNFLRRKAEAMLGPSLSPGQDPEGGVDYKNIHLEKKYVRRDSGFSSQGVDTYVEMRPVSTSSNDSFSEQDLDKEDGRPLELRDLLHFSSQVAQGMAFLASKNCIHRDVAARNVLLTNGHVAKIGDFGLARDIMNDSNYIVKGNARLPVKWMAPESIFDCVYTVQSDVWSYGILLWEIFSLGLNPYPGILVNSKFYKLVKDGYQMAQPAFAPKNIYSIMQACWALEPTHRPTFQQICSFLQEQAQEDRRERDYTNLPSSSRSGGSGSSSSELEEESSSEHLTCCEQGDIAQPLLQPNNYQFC
T3 sequence (P16234 24-1089): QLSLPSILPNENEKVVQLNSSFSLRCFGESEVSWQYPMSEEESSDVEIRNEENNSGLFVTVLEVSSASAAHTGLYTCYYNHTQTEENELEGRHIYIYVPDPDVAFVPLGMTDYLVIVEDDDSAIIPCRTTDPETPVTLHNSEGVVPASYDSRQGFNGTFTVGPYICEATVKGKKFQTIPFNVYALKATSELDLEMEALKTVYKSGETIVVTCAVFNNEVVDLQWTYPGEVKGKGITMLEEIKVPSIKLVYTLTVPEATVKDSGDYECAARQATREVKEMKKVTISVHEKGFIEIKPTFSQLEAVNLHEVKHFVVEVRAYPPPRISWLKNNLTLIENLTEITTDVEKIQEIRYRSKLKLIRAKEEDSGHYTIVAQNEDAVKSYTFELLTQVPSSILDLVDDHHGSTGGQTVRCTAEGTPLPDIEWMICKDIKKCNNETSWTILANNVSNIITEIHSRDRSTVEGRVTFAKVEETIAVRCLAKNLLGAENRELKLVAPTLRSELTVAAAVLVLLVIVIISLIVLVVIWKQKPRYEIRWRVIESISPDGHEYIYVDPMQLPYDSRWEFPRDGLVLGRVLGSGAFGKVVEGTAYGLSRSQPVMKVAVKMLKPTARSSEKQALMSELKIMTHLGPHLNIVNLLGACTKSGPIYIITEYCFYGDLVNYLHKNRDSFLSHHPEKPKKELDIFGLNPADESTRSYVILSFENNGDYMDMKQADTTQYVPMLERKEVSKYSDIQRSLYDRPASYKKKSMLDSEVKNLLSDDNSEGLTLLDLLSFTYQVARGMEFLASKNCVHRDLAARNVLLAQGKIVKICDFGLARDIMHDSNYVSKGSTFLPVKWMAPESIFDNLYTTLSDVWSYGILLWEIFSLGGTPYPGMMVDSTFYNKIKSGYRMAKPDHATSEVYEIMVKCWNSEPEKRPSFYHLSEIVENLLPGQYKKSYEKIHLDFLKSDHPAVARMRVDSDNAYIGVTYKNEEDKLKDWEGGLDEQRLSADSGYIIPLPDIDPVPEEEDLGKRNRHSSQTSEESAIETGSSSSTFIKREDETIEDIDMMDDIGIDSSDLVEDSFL

As for `Cc1ccc(-c2noc(C3CC3F)n2)cc1NC(=O)c1cnc2cc(COC3CC(O)C3)ccn12` (mixture of isomers) [Compound I-72], the IC50 was ≤ 50 nM at wtKIT, ≤ 50 nM on CSF-1R, 500 to 5000 nM at PDGFRα and ≤ 50 nM in series [1]. Further, the “Solubility (μM)” value in “Kinetic solubility assay” is “**** (a solubility less than or equal to 2 μM)”.
For `Cc1ccc(-c2noc([C@H]3C[C@@H]3F)n2)cc1NC(=O)c1cnc2ccc(C3CNC3)cn12` [Compound I-106], the IC50 was ≤ 50 nM on wtKIT, ≤ 50 nM on CSF-1R, 50 to 500 nM at PDGFRα and 50 to 500 nM in series [1]. In addition, the “Solubility (μM)” value in the series “Kinetic solubility assay” is listed as “* (a solubility greater than 50 μM)”.
As to `Cc1ccc(-c2noc(C[C@H](C)O)n2)cc1NC(=O)c1cnn2ccccc12` [Compound I-80], the IC50 is 50 to 500 nM at wtKIT, 50 to 500 nM at CSF-1R, 5000 to 30000 nM at PDGFRα and ≤ 50 nM in series [1]. The “Solubility (μM)” value in the series “Kinetic solubility assay” is given as “* (a solubility greater than 50 μM)”.
As to `Cc1ccc(-c2noc([C@H]3C[C@@H]3F)n2)cc1NC(=O)c1cnc2ccc(Cl)cn12` [Compound I-102], the IC50 was ≤ 50 nM at wtKIT, ≤ 50 nM at CSF-1R, 500 to 5000 nM at PDGFRα and ≤ 50 nM in series [1]. The “Solubility (μM)” value in “Kinetic solubility assay” was “**** (a solubility less than or equal to 2 μM)”.
`Cc1ccc(-c2noc([C@H]3C[C@@H]3F)n2)cc1NC(=O)c1cnc2cc(F)ccn12` [Compound I-103]: the IC50 is ≤ 50 nM at wtKIT, ≤ 50 nM on CSF-1R, 500 to 5000 nM at PDGFRα and 50 to 500 nM in series [1]. For the same compound, in the series “Kinetic solubility assay”, the “Solubility (μM)” value is recorded as “**** (a solubility less than or equal to 2 μM)”.
As for `CCCS(=O)(=O)N1CC(c2nc(-c3ccc(C)c(NC(=O)c4cnc5ccccn45)c3)no2)C1` [Compound C, reference compound], the “CYP 3A4 induction mRNA: Mean fold at 10 μM” value with CYP3A4 was “+++ (induction fold of greater than 3-fold to less than or equal to 10-fold)”.
With `COC(=O)N1CC(c2nc(-c3ccc(C)c(NC(=O)c4cnn5ccccc45)c3)no2)C1` [Compound B, reference compound], the “CYP 3A4 induction mRNA: Mean fold at 10 μM” value in the series with CYP3A4 is on record as “++ (induction fold of greater than 2-fold to less than or equal to 3-fold)”.
In the case of `Cc1ccc(-c2noc([C@@H]3CC(F)(F)CN3)n2)cc1NC(=O)c1cnc2cc(COCCO)ccn12` [Compound I-111], the IC50 was ≤ 50 nM on wtKIT, 50 to 500 nM on CSF-1R, 50 to 500 nM at PDGFRα and ≤ 50 nM in series [1]. In addition, the “Solubility (μM)” value in “Kinetic solubility assay” was “* (a solubility greater than 50 μM)”.
On to `Cc1ccc(-c2noc(C(F)C3CC3)n2)cc1NC(=O)c1cnc2ccccn12` (racemic) [Compound I-77], for which the IC50 was ≤ 50 nM at wtKIT, 50 to 500 nM at CSF-1R, 5000 to 30000 nM at PDGFRα and ≤ 50 nM in series [1]. Further, the “Solubility (μM)” value in “Kinetic solubility assay” is recorded as “**** (a solubility less than or equal to 2 μM)”.
As to `COC(=O)N1CC(c2nc(-c3ccc(C)c(NC(=O)c4cnc5cc(CO)ccn45)c3)no2)C1` [Compound I-120], the IC50 on wtKIT is 50 to 500 nM; on CSF-1R, 5000 to 30000 nM; at PDGFRα it was 5000 to 30000 nM; in series [1] it was ≤ 50 nM. Further, the “Solubility (μM)” value in “Kinetic solubility assay” was “**** (a solubility less than or equal to 2 μM)”.
As to `Cc1ccc(-c2noc(C[C@@H](C)O)n2)cc1NC(=O)c1cnn2ccccc12` [Compound I-81], the IC50 was 50 to 500 nM at wtKIT, 500 to 5000 nM on CSF-1R, 5000 to 30000 nM on PDGFRα and ≤ 50 nM in series [1]. Besides, the “Solubility (μM)” value in “Kinetic solubility assay” was “** (a solubility greater than 10 μM and less than or equal to 50 μM)”.
Take `Cc1ccc(-c2noc(C(O)C3CC3)n2)cc1NC(=O)c1cnc2ccccn12` (racemic) [Compound I-78]: the IC50 was ≤ 50 nM at wtKIT, 50 to 500 nM on CSF-1R, 500 to 5000 nM at PDGFRα and ≤ 50 nM in series [1]. In the series “Kinetic solubility assay”, the “Solubility (μM)” value is recorded as “**** (a solubility less than or equal to 2 μM)”.
With `Cc1ccc(-c2noc(C(O)C3CCC3)n2)cc1NC(=O)c1cnc2ccccn12` (racemic) [Compound I-79], the IC50 at wtKIT was ≤ 50 nM; at CSF-1R, 50 to 500 nM; on PDGFRα, 50 to 500 nM; in series [1] it was ≤ 50 nM. Besides, in the series “Kinetic solubility assay”, the “Solubility (μM)” value is reported as “**** (a solubility less than or equal to 2 μM)”.
Turning to `Cc1ccc(-c2noc(C3CC(F)(F)C3)n2)cc1NC(=O)c1cnc2cc(CO)ccn12` [Compound I-105], the IC50 on wtKIT was ≤ 50 nM; on CSF-1R, ≤ 50 nM; on PDGFRα, 500 to 5000 nM; in series [1], 50 to 500 nM. Also, in “Kinetic solubility assay”, the “Solubility (μM)” value is listed as “**** (a solubility less than or equal to 2 μM)”.
For `CCOc1ccc2ncc(C(=O)Nc3cc(-c4noc([C@H]5C[C@@H]5F)n4)ccc3C)n2c1` [Compound I-92], the IC50 is ≤ 50 nM at wtKIT, ≤ 50 nM on CSF-1R, 50 to 500 nM on PDGFRα and ≤ 50 nM in series [1]. Moreover, the “Solubility (μM)” value in the series “Kinetic solubility assay” was “**** (a solubility less than or equal to 2 μM)”.
Turning to `Cc1ccc(-c2noc([C@H]3C[C@@H]3F)n2)cc1NC(=O)c1cnc2ccc(OC(C)C)cn12` [Compound I-86], the IC50 was ≤ 50 nM at wtKIT, ≤ 50 nM on CSF-1R, 50 to 500 nM at PDGFRα and ≤ 50 nM in series [1]. The “Solubility (μM)” value in the series “Kinetic solubility assay” is given as “**** (a solubility less than or equal to 2 μM)”.
On to `COc1ccn2c(C(=O)Nc3cc(-c4noc(C[C@@H](C)O)n4)ccc3C)cnc2c1` [Compound I-95], for which the IC50 was ≤ 50 nM at wtKIT, 50 to 500 nM at CSF-1R, 500 to 5000 nM on PDGFRα and ≤ 50 nM in series [1]. In addition, in “Kinetic solubility assay”, the “Solubility (μM)” value is listed as “**** (a solubility less than or equal to 2 μM)”.
Turning to `Cc1ccc2ncc(C(=O)Nc3cc(-c4noc([C@H]5C[C@@H]5F)n4)ccc3C)n2c1` [Compound I-108], the IC50 at wtKIT is ≤ 50 nM; at CSF-1R it was ≤ 50 nM; on PDGFRα, 50 to 500 nM; in series [1] it was ≤ 50 nM. For the same compound, in “Kinetic solubility assay”, the “Solubility (μM)” value is reported as “**** (a solubility less than or equal to 2 μM)”.

(Values after US20240254119A1 (THIRD HARMONIC BIO, INC., priority 2022, published 2024).)
